Measured values reported in the NIST ThermoML archive (doi:10.1016/j.tca.2010.07.032).
Values joined by “and” are separate entries in the source; they are usually repeats but may differ in a detail not shown here. Equal values may be shown once. Numbers after ± are expanded uncertainties.

Conditions: Liquid; Temperature-Programmed Gas Chromatography

| SMILES | Normal boiling temperature |
| --- | --- |
| CCCCCOP(=O)(OCCCCC)OCCCCC [tripentyl phosphate] | 323.21 ± 32 °C and 326.62 ± 33 °C |
| COP(=O)(OC)OC [trimethyl orthophosphate] | 195.06 ± 20 °C and 194.97 ± 20 °C |
| CCCC(C)OP(=O)(OC(C)CCC)OC(C)CCC (stereo not drawn) [tri-sec-amyl phosphate] | 282.02 ± 28 °C and 282.74 ± 28 °C |
| CCC(C)OP(=O)(OC(C)CC)OC(C)CC (stereo not drawn) [tri-sec-butyl phosphate] | 260.80 ± 26 °C and 261.06 ± 26 °C |
| CCOP(=O)(OCC)OCC [ethyl phosphate] | 215.89 ± 22 °C and 216.34 ± 22 °C |
| CCCCCCOP(=O)(OCCCCCC)OCCCCCC [trihexyl phosphate] | 366.12 ± 37 °C and 365.02 ± 36 °C |
| CC(C)CCOP(=O)(OCCC(C)C)OCCC(C)C [triisopentyl phosphate] | 302.29 ± 30 °C and 302.37 ± 30 °C |
| CC(C)COP(=O)(OCC(C)C)OCC(C)C [triisobutyl phosphate] | 264.67 ± 26 °C and 265.70 ± 27 °C |
